According to patent publication US20110177964A1, “CHEMOSENSORY ARRAYS” (THE TRUSTEES OF PRINCETON UNIVERSITY, priority 2009, published 2011):
Positions count from the first letter of the chain named.

How the values were obtained:
[1] = molecular target: T1, H-20 (R1) receptor (Homo sapiens, UniProt Q15391, A193V/A252V/A98G/F243I/I251T/K54E/R253K); assay: Yeast FUS1-lacZ β-galactosidase reporter assay, single receptor-single ligand calibration curves fitted by Bayesian nested sampling; format: cell-based; conditions: for ΔG (receptor-ligand binding free energy): H-20 (R1) expressed in yeast, average ± s.d. from posterior; for A (receptor efficacy): H-20 (R1), 1 = full agonist, 0 = full antagonist
T1 construct: expressed in transfected cells; host or cells: Saccharomyces yeast; strain CY10981 with FUS1-LacZ plasmid for β-galactosidase assays, strain CY10560 (FUS1-HIS3) for growth selection
T1 sequence (Q15391 with tags, fused parts or gaps K54E/A98G/A193V/F243I/I251T/A252V/R253K): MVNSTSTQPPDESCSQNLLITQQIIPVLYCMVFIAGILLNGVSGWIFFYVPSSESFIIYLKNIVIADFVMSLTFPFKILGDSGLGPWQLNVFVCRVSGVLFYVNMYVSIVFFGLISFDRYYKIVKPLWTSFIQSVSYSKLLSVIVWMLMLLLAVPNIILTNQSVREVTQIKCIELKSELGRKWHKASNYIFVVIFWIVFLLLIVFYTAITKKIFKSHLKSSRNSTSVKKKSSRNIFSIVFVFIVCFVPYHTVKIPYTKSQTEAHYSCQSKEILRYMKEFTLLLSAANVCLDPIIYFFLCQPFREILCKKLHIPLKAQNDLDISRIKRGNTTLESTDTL
Excerpt: (§1) To assess receptor ligand interactions quantitatively in the chemosensor array, the receptors were functionally expressed in yeast. To do so, the yeast pheromone receptor was replaced with one of the sensor GPCRs in strains in which the pheromone response pathway was modified to respond to the heterologous receptor by inducing transcription of the E. coli lacZ gene. See the example section below. In this fashion, the extent of GPCR activation following ligand addition could be monitored as the level of β-galactosidase produced in the cell, which was measured using a fluorescence-based assay. See the example section below.
(§2) Receptor responses to binding of a single ligand. It was assumed that the observed signal in the receptor-bearing reporter strain is proportional to the probability that the receptor is bound by the ligand. This proportionality value, A, which is referred to as the receptor efficacy, can range from 1, for a full agonist, to 0, for a full antagonist, with intermediate values indicating partial agonist activity. In the simplest case of a single receptor interacting with a single ligand, the amount of activation of the reporter in the receptor bearing strain is given by:
(§3) where A is the receptor efficacy, ΔG is the receptor-ligand binding free energy, b is the background intensity, β=1/kBT (kB is the Boltzmann constant, and T is the temperature), and μ^l=kBT log n^l, which is the chemical potential, where n^l is the ligand concentration. In the example of fluorescing products, I can be measured by a fluorescent assay, but the intensity of any report may be utilized. […] In this example, the four receptors are R1: H-20, R2: K-3, and R3: L-3, R4: 2211. See the example section below for details regarding these receptors. […] For each curve, intensity normalized by the maximum intensity on the plate is plotted against log10 n (n is the ligand concentration in M). The error bars on each curve are from four biological replicates. The single receptor-single ligand binding curves can be used to calibrate the biophysical model (Eq. (1)) by inferring ΔG, A and b for each receptor-ligand combination and knowledge of μ^l. Specifically, Bayesian inference is applied. Referring to FIG. 4, the posterior probability P(ΔG, A, b, σ|{Ĩ}) is found by nested sampling (see below), where Ĩ=(l=1 . . . N) is the lth fluorescent and a is the noise parameter. […] This step provides calibration by returning the most likely value of ΔG, A and b for each receptor-ligand pair, as well as a value σ, which represents the noise in the response. The average value of each parameter obtained by marginalization of the posterior probability can be subsequently used for analysis of a mixture of compounds.
(§4) In this example, yeast cultures expressing each of the four mutant receptors (2211, H-20, K-3 and L-3) were grown overnight and diluted to OD600 of […] in flasks. Cultures were then grown to an OD600 of 0.1-0.2 and 80 μl of culture was aliquotted into deep-well 384 well plates along with 20 μL of ligand. Cultures in the 384 well plates were incubated with vigorous mixing for 4 hours (H-20, K-3, L-3) or overnight (2211). 50 μL of each sample was transferred to a black 384 well plate containing 25 μL fluorescein/lysis solution (as described in Chambers J, et al.). Fluorescence was read on a PerkinElmer fluorescent plate reader.

[2] = molecular target: T2, K-3 (R2) receptor (Homo sapiens, UniProt Q15391, A193V/A252V/A98G/E278G/F243I/K54E); assay: as above; format: cell-based; conditions: for ΔG (receptor-ligand binding free energy): K-3 (R2) expressed in yeast, average ± s.d. from posterior; for A (receptor efficacy): K-3 (R2), 1 = full agonist, 0 = full antagonist
T2 construct: expressed in transfected cells; host or cells: Saccharomyces yeast; strain CY10981 with FUS1-LacZ plasmid for β-galactosidase assays, strain CY10560 (FUS1-HIS3) for growth selection
T2 sequence (Q15391 with tags, fused parts or gaps K54E/A98G/A193V/F243I/A252V/E278G): T1 sequence (Q15391 with tags, fused parts or gaps K54E/A98G/A193V/F243I/I251T/A252V/R253K) with T251I, K253R, E278G
Excerpt: as §1, §2, §3, §4

[3] = molecular target: T3, L-3 (R3) receptor (Homo sapiens, UniProt Q15391, A193V/A252V/A285S/A98G/F243I/K54E/L281V/L282F); assay: as above; format: cell-based; conditions: for ΔG (receptor-ligand binding free energy): L-3 (R3) expressed in yeast, average ± s.d. from posterior; for A (receptor efficacy): L-3 (R3), 1 = full agonist, 0 = full antagonist
T3 construct: expressed in transfected cells; host or cells: Saccharomyces yeast; strain CY10981 with FUS1-LacZ plasmid for β-galactosidase assays
T3 sequence (Q15391 with tags, fused parts or gaps K54E/A98G/A193V/F243I/A252V/L281V/L282F/A285S): T1 sequence (Q15391 with tags, fused parts or gaps K54E/A98G/A193V/F243I/I251T/A252V/R253K) with T251I, K253R, L281V, L282F, A285S
Excerpt: as §1, §2, §3, §4

[4] = molecular target: T4, 2211 (R4) receptor (Homo sapiens, UniProt Q15391, A193V/A252V/A98G/F243I/K54E); assay: as above; format: cell-based, yeast expressing yeast expressing yeast expressing yeast expressing human receptor receptor receptor receptor; conditions: for ΔG (receptor-ligand binding free energy): 2211 (R4) expressed in yeast, average ± s.d. from posterior; for A (receptor efficacy): 2211 (R4), 1 = full agonist, 0 = full antagonist
T4 construct: expressed in transfected cells; host or cells: Saccharomyces yeast; strain CY10981 with FUS1-LacZ plasmid for β-galactosidase assays, strain CY10560 (FUS1-HIS3) for growth selection
T4 sequence (Q15391 with tags, fused parts or gaps K54E/A98G/A193V/F243I/A252V): T1 sequence (Q15391 with tags, fused parts or gaps K54E/A98G/A193V/F243I/I251T/A252V/R253K) with T251I, K253R
Excerpt: as §1, §2, §3, §4

[5] = molecular target: T5, 2211 receptor (Homo sapiens, UniProt Q15391, A193V/A252V/A98G/F243I/K54E); assay: Yeast growth plate assay (FUS1-HIS3 reporter) on selective media containing ligand; format: cell-based; conditions: 2211 (parent) receptor, selective plates with ligand
T5 construct: expressed in transfected cells; host or cells: Saccharomyces yeast; strain CY10981 with FUS1-LacZ plasmid for β-galactosidase assays, strain CY10560 (FUS1-HIS3) for growth selection
T5 sequence (Q15391 with tags, fused parts or gaps K54E/A98G/A193V/F243I/A252V): T1 sequence (Q15391 with tags, fused parts or gaps K54E/A98G/A193V/F243I/I251T/A252V/R253K) with T251I, K253R
Excerpt: Mutagenesis and selection of sensitized receptor mutants: The entire UDPG receptor gene was mutagenized via errorprone mutagenesis to an estimated frequency of −2-5 mutations/kb following the Mutazyme protocol. […] A total of (1-2)×10^5 colonies were screened by replica plating to SC-His medium (Kaiser, C., Michaelis, S, and Mitchell, A. (1994) Methods in Yeast Genetics: A Cold Spring Harbor Laboratory Course Manual. Cold Spring Harbor Laboratory Press, Cold Spring Harbor, N.Y., which is incorporated herein by reference as if fully set forth) with or without ligand. Yeast growth media was supplemented by 1 mM 3AT, a competitive inhibitor of the HIS3 reporter gene product, which sets the threshold for reporter gene activation.
Cells were transformed with a plasmid library carrying the randomly mutated human UDPG receptor gene.
The 20 receptors isolated in this primary screen were subsequently retested for growth in the presence of lower concentrations of each ligand, to ascertain whether the receptor had significant changes in ligand preference. […] To determine whether the receptors that lacked appreciable changes in ligand specificity were indeed mutants and to verify the complexity of the mutant library, the DNA encoding each receptor was sequenced.

[6] = molecular target: T6, K-3 mutant receptor (Homo sapiens, UniProt Q15391, A193V/A252V/A98G/E278G/F243I/K54E); assay: as above; format: cell-based; conditions: K-3 mutant relative to its parent H-20
T6 construct: expressed in transfected cells; host or cells: Saccharomyces yeast; strain CY10981 with FUS1-LacZ plasmid for β-galactosidase assays, strain CY10560 (FUS1-HIS3) for growth selection
T6 sequence (Q15391 with tags, fused parts or gaps K54E/A98G/A193V/F243I/A252V/E278G): T1 sequence (Q15391 with tags, fused parts or gaps K54E/A98G/A193V/F243I/I251T/A252V/R253K) with T251I, K253R, E278G
Excerpt: The ‘HIAR’ motif in transmembrane domain 6 was targeted. […] Libraries containing the randomized HIAR motif were constructed in vivo by cotransforming strain CY10560 cells with three DNA fragments: a 2211 receptor plasmid cut to remove the HIAR domain and a pair of PCR products synthesized with oligonucleotides randomized over the HIAR region and 50 and 30 extensions overlapping both sides of the gap in the plasmid. […] The 20 receptors isolated in this primary screen were subsequently retested for growth in the presence of lower concentrations of each ligand, to ascertain whether the receptor had significant changes in ligand preference. […] To determine whether the receptors that lacked appreciable changes in ligand specificity were indeed mutants and to verify the complexity of the mutant library, the DNA encoding each receptor was sequenced.
H-20 was selected as the template for mutagenesis of three additional motifs, ‘AxxFY’ and ‘NMY’ in TM3 and ‘KExT’ in TM7. These mutants were tested in the same manner as the HIAR mutants, focusing only on mutants with clear changes in relative growth on one or more ligands.

O=c1ccn([C@@H]2O[C@H](COP(=O)(O)OP(=O)(O)O)[C@@H](O)[C@H]2O)c(=O)[nH]1 [UDP, uridine diphosphate]
ΔG (receptor-ligand binding free energy) [1]: -31 ± 0.21 kJ/mol | A (receptor efficacy) [1]: .008 ± .009 | agonist/antagonist character ([1]; H-20, small A, large negative ΔG): antagonist | ΔG (receptor-ligand binding free energy) [2]: -34.3 ± 0.84 kJ/mol | A (receptor efficacy) [2]: .18 ± .01 | agonist/antagonist character ([2]; K-3, small A, large negative ΔG): antagonist | ΔG (receptor-ligand binding free energy) [3]: -31 ± 0.42 kJ/mol | A (receptor efficacy) [3]: .02 ± .02 | agonist/antagonist character ([3]; L-3, small A, large negative ΔG): antagonist | ΔG (receptor-ligand binding free energy) [4]: -43.1 ± 1.3 kJ/mol | A (receptor efficacy) [4]: .010 ± .009 | agonist/antagonist character ([4]; 2211, small A, large negative ΔG): antagonist | receptor response to ligand (yeast growth) [5]: do not activate | yeast growth in response to ligand [6]: grew

CC(=O)N[C@H]1[C@@H](OP(=O)(O)OP(=O)(O)OC[C@H]2O[C@@H](n3ccc(=O)[nH]c3=O)[C@H](O)[C@@H]2O)O[C@H](CO)[C@H](O)[C@@H]1O [UDP-GalNAc, UDP-N-acetylgaltactosamine]
receptor response to ligand (yeast growth) [5]: responds

CC(=O)N[C@H]1[C@@H](OP(=O)(O)OP(=O)(O)OC[C@H]2O[C@@H](n3ccc(=O)[nH]c3=O)[C@H](O)[C@@H]2O)O[C@H](CO)[C@@H](O)[C@@H]1O [UDP-GlcNAc, UDP-N-acetylglucosamine]
ΔG (receptor-ligand binding free energy) [1]: -25.8 ± 0.25 kJ/mol | A (receptor efficacy) [1]: .51 ± .01 | ΔG (receptor-ligand binding free energy) [2]: -22.4 ± 0.25 kJ/mol | A (receptor efficacy) [2]: .55 ± .01 | ΔG (receptor-ligand binding free energy) [3]: -23.4 ± 0.25 kJ/mol | A (receptor efficacy) [3]: .43 ± .01 | ΔG (receptor-ligand binding free energy) [4]: -33.5 ± 0.38 kJ/mol | A (receptor efficacy) [4]: .89 ± .04 | receptor response to ligand (yeast growth) [5]: responds

Cc1cn([C@H]2C[C@H](O)[C@@H](COP(=O)(O)OP(=O)(O)O[C@H]3O[C@H](CO)[C@@H](O)[C@H](O)[C@H]3O)O2)c(=O)[nH]c1=O [dTDP-glucose]
receptor response to ligand (yeast growth) [5]: do not activate
